Usually IC50 stands for the point on the concentration scale where inhibition reaches its midpoint. What is called ΔTm is the shift of the melting midpoint relative to a reference.

In assay [1] the target is T1, Dual specificity tyrosine-phosphorylation-regulated kinase 3 (Homo sapiens, UniProt O43781).
T1 sequence (O43781 whole entry): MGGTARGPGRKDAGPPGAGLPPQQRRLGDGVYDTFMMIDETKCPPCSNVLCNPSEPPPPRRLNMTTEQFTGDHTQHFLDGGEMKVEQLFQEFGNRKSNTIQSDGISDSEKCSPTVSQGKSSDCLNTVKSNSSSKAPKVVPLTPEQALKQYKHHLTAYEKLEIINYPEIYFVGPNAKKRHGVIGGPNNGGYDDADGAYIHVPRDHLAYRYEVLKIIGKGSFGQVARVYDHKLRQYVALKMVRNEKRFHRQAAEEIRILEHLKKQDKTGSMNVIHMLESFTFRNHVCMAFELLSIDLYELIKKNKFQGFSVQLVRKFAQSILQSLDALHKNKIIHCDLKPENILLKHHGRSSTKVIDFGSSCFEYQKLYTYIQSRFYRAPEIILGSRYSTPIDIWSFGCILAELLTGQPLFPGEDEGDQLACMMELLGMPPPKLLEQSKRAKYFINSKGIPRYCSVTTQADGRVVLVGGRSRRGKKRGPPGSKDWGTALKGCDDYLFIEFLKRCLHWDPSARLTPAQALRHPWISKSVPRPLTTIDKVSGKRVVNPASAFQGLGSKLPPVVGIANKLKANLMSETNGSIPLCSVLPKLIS
The assay is described as follows: Inhibition of DYRK3 (unknown origin).

Assay [2] concerns the target T2, Glycogen synthase kinase-3 beta (Homo sapiens, UniProt P49841). Kind of assay: Binding affinity to GSK3B (unknown origin) assessed as change in melting temperature of protein at 10 uM by Sypro-orange dye based DSF assay. On the technique in general: Differential scanning fluorimetry follows unfolding on heating by fluorescence.
Target sequence in this assay (P49841 whole entry, looked up): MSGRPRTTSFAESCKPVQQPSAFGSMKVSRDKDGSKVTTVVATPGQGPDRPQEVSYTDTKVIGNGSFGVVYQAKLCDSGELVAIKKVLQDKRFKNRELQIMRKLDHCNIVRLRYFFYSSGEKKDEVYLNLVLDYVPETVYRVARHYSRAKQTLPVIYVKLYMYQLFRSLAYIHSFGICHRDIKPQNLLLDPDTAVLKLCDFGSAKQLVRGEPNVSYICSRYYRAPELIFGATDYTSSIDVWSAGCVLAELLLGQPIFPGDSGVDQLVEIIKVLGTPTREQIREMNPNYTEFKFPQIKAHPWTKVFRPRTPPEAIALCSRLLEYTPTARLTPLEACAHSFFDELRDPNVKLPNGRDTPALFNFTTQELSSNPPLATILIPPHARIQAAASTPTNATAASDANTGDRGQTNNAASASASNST
Assay [3] deals with T3, Dual specificity tyrosine-phosphorylation-regulated kinase 2 (Homo sapiens) (UniProt Q92630).
T3 sequence (whole entry): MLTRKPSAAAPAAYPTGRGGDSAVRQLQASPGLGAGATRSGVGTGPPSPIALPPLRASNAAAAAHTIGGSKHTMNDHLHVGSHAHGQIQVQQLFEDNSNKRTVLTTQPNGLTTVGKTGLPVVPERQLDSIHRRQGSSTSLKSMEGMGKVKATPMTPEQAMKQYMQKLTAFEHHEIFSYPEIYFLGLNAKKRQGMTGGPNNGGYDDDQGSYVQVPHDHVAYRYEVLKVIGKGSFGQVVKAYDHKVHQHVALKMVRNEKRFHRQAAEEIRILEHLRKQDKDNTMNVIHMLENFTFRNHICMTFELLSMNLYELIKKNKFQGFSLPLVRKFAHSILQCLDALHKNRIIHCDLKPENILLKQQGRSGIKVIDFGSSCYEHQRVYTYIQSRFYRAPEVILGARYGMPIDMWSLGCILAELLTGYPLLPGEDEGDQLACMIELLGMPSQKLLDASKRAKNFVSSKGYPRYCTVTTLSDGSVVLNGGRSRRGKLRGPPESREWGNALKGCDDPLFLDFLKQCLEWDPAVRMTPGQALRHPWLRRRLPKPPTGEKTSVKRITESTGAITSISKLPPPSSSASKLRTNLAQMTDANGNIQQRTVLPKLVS
Kind of assay: Binding affinity to DYRK2 (unknown origin) assessed as change in melting temperature of protein at 10 uM by Sypro-orange dye based DSF assay.

The target in assay [4] is Dual specificity protein kinase CLK3 (Homo sapiens, UniProt P49761). Kind of assay: Inhibition of CLK3 (unknown origin).
Assay [5] has as its target T2, Glycogen synthase kinase-3 beta. Kind of assay: Inhibition of GSK3B (unknown origin).
Target sequence in this assay (P49841 whole entry): as the sequence (P49841 whole entry, looked up) above
In assay [6] the target is T4, Dual specificity tyrosine-phosphorylation-regulated kinase 4 (Homo sapiens, UniProt Q9NR20).
T4 sequence (Q9NR20 whole entry): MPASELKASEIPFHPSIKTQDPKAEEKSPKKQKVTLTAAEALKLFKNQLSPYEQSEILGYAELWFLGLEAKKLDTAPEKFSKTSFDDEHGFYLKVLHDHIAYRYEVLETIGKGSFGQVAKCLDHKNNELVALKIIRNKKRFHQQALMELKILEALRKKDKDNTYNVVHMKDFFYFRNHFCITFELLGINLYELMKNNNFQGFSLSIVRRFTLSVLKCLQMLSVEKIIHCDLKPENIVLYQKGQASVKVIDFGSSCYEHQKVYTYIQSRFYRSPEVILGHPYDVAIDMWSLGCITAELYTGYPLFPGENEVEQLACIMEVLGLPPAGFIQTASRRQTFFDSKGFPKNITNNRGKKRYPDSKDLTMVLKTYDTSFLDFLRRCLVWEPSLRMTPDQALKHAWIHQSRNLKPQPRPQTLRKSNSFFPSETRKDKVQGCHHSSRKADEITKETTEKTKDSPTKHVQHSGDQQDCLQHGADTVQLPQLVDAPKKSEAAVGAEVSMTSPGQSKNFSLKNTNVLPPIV
Kind of assay: Inhibition of DYRK4 (unknown origin).

Assay [7] deals with T5, Dual specificity protein kinase CLK1 (Homo sapiens, UniProt P49759). Kind of assay: Binding affinity to CLK1 (unknown origin) assessed as change in melting temperature of protein at 10 uM by Sypro-orange dye based DSF assay.
Target sequence in this assay (P49759 whole entry, looked up): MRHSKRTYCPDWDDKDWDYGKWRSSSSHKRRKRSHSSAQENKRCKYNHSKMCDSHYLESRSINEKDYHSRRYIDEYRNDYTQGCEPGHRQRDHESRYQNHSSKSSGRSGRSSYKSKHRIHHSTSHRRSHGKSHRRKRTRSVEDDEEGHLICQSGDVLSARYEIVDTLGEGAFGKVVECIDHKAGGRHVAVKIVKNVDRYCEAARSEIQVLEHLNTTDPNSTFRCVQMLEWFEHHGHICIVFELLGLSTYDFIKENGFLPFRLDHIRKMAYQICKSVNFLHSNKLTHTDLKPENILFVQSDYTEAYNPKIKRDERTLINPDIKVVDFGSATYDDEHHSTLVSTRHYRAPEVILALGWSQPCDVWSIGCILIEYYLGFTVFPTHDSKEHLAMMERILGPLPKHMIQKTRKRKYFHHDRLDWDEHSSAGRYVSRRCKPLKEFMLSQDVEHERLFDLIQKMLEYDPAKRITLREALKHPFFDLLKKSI
The target in assay [8] is Glycogen synthase kinase-3 alpha (Homo sapiens, UniProt P49840). The assay is described as follows: Inhibition of GSK3A (unknown origin).
For assay [9], the target named is Dual specificity protein kinase CLK2 (Homo sapiens, UniProt P49760). Kind of assay: Inhibition of CLK2 (unknown origin).
In assay [10] the target is T6, Dual specificity tyrosine-phosphorylation-regulated kinase 2 (Homo sapiens, UniProt Q92630).
T6 sequence (Q92630 whole entry): T3 sequence (whole entry)
Kind of assay: Inhibition of DYRK2 (unknown origin).

For assay [11], the target named is Dual specificity tyrosine-phosphorylation-regulated kinase 1A (Homo sapiens) (UniProt Q13627). Kind of assay: Binding affinity to 6x-His-tagged DYRK1A (unknown origin) assessed as change in melting temperature of protein at 10 uM by Sypro-orange dye based DSF assay.
The target in assay [12] is T5, Dual specificity protein kinase CLK1. The assay is described as follows: Inhibition of CLK1 (unknown origin).
Target sequence in this assay (P49759 whole entry): as the sequence (P49759 whole entry, looked up) above
For assay [13], the target named is Dual specificity protein kinase CLK4 (Homo sapiens, UniProt Q9HAZ1). The assay is described as follows: Inhibition of CLK4 (unknown origin).
Chain of Dual specificity protein kinase CLK4 (Q9HAZ1 whole entry): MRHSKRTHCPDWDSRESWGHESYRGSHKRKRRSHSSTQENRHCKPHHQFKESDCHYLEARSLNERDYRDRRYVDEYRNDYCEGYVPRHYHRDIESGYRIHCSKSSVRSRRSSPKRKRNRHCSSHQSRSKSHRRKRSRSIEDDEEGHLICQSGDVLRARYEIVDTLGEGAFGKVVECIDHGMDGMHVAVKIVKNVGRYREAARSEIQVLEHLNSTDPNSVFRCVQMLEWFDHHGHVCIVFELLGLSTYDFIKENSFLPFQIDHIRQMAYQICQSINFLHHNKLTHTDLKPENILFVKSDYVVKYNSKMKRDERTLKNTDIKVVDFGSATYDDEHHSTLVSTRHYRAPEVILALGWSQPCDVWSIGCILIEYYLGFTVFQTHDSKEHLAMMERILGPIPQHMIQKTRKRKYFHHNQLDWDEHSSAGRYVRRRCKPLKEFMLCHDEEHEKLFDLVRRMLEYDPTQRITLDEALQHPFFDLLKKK

Chain of Glycogen synthase kinase-3 alpha (P49840 whole entry): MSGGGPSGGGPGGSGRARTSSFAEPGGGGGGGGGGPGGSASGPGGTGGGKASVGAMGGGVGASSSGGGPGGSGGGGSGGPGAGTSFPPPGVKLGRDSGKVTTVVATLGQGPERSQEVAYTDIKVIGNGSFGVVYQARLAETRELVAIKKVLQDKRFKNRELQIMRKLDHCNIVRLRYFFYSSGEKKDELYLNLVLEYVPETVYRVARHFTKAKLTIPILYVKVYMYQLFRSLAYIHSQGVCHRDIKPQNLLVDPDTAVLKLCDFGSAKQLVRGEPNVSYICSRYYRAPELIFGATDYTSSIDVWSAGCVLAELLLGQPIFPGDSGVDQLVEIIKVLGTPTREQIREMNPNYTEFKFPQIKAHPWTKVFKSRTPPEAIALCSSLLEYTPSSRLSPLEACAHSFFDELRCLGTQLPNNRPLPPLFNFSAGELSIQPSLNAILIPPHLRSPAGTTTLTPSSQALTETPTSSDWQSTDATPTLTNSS
Chain of Dual specificity protein kinase CLK3 (P49761 whole entry): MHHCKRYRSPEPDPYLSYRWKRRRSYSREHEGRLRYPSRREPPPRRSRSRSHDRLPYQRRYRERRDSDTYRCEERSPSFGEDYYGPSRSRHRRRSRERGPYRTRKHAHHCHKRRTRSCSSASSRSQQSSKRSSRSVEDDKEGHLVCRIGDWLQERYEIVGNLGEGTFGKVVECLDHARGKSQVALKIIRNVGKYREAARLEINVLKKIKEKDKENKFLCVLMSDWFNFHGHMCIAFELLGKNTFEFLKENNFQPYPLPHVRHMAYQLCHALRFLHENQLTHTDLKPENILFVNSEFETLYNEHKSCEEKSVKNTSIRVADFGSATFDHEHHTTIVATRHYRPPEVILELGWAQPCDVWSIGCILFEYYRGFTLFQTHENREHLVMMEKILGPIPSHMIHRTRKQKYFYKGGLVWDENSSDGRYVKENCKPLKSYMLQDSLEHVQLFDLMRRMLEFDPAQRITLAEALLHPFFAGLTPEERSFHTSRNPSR
Chain of Dual specificity protein kinase CLK2 (P49760 whole entry): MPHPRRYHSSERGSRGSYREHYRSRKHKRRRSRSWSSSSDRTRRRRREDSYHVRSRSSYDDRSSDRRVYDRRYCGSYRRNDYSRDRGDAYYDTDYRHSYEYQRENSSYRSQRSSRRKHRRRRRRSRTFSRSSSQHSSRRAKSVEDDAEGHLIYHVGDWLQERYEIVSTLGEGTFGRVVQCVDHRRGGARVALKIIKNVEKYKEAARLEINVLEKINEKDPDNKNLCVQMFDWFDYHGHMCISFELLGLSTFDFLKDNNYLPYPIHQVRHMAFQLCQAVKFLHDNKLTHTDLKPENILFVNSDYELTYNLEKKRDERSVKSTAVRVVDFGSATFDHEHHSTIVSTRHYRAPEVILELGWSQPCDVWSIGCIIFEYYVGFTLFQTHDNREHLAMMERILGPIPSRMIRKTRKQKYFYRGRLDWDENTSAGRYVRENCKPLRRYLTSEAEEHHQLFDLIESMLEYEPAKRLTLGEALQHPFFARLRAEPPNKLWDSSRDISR

For the compound `COC(=N)c1nc2ccc3ncnc(Nc4ccc(Cl)cc4Cl)c3c2s1`, the IC50 in assay [1] is 93.2 nM; in [4], over 10000 nM; in [5], 221 nM; in assay [6], “Not Active”; in assay [8], 7.44 nM; in [9], 88.8 nM. For the same compound, the IC50 in [10] turned out to be 10.8 nM; in assay [12] it was 22.8 nM; in assay [13] it was 59 nM. Moreover, the ΔTm was 5 °C in assay [2], 5 °C in assay [3], 5 °C in [7] and 9 °C in [11].
Regarding `COC(=N)c1nc2ccc3ncnc(Nc4ccc(OC)cc4F)c3c2s1`, the IC50 in [1] was 21.1 nM; in assay [4], 1420 nM; in assay [5], 143 nM; in assay [6] (read-out: IC50), 1570 nM; in assay [8], 9.11 nM; in assay [9], 32.5 nM. Further, the IC50 in [10] is 3.16 nM; in assay [12], 11 nM; in assay [13], 32 nM. For the same compound, the ΔTm in assay [2] is 5 °C; in assay [3], 5 °C; in assay [7] it was 5 °C; in [11], 9 °C.

The values are drawn from ChEMBL document CHEMBL4715790, “An Unusual Binding Model of the Methyl 9-Anilinothiazolo[5,4-f] quinazoline-2-carbimidates (EHT 1610 and EHT 5372) Confers High Selectivity for Dual-Specificity Tyrosine Phosphorylation-Regulated Kinases” (J Med Chem, 2016).
